Experimental data from ChEMBL document CHEMBL4825686, “HTS-based discovery and optimization of novel positive allosteric modulators of the α7 nicotinic acetylcholine receptor” (Eur J Med Chem, 2021).
Converted amounts (≈) assume the structure as drawn. The source made the active and inactive calls. The rule behind the calls is not given here.

Assays:
Mus musculus = experiment: Cognitive enhancing effect in scopolamine-induced amnesia NMRI mouse model assessed as increase in recognition index at 1 to 10 mg/kg, ip administered 30 mins prior to scopolamine injection by Y-maze test; type: functional, organism-based; conditions: dose 1-10 mg/kg
[1] = Drug uptake in Wistar rat brain at 10 mg/kg, ip measured after 35 mins by HPLC-MS/MS analysis; type: ADME, organism-based; conditions: read-out: Ct
[2] = target: T1, GABA-A receptor; alpha-5/beta-3/gamma-2 (Homo sapiens) (UniProt P18507+P28472+P31644); experiment: Inhibition of human alpha5beta3gamma2 GABAA receptor expressed in HEK293 cells assessed as inhibition of GABA induced channel current response at 1 to 10 uM measured after 7 to 10 mins at -80 mV holding potential by whole-cell patch clamp assay; type: cell-based; conditions: dose 1-10 µM, time 7-10 min
[3] = Mutagenicity in Salmonella typhimurium TA98 in absence of rat liver S9 fraction by AMES test; type: toxicity; conditions: salmonella enterica subsp. enterica serovar typhimurium
[4] = Ratio of drug level in NMRI mouse brain to plasma at 0.3 mg/kg, ip measured after 1 hr by HPLC-MS/MS analysis; type: ADME, organism-based; conditions: read-out: BPR
[5] = target: GABA-A receptor; anion channel (Rattus norvegicus) (UniProt O09028+P15431+P18506+P18508+P19969+P20236+P23574+P23576+P28471+P28473+P30191+P62813+P63079+P63138+Q91ZM7+Q9ES14); experiment: Displacement of [3H]muscimol from GABAA receptor in Wistar rat brain without cerebellum at 10 uM by displacement binding assay; type: tissue-based
[6] = target: Voltage-gated inwardly rectifying potassium channel KCNH2 (Homo sapiens, UniProt Q12809); experiment: Inhibition of human ERG channel expressed in CHO cells measured after 7 to 10 mins at -80 mV holding potential by whole cell patch clamp assay; type: cell-based
Voltage-gated inwardly rectifying potassium channel KCNH2, sequence (Q12809 whole entry): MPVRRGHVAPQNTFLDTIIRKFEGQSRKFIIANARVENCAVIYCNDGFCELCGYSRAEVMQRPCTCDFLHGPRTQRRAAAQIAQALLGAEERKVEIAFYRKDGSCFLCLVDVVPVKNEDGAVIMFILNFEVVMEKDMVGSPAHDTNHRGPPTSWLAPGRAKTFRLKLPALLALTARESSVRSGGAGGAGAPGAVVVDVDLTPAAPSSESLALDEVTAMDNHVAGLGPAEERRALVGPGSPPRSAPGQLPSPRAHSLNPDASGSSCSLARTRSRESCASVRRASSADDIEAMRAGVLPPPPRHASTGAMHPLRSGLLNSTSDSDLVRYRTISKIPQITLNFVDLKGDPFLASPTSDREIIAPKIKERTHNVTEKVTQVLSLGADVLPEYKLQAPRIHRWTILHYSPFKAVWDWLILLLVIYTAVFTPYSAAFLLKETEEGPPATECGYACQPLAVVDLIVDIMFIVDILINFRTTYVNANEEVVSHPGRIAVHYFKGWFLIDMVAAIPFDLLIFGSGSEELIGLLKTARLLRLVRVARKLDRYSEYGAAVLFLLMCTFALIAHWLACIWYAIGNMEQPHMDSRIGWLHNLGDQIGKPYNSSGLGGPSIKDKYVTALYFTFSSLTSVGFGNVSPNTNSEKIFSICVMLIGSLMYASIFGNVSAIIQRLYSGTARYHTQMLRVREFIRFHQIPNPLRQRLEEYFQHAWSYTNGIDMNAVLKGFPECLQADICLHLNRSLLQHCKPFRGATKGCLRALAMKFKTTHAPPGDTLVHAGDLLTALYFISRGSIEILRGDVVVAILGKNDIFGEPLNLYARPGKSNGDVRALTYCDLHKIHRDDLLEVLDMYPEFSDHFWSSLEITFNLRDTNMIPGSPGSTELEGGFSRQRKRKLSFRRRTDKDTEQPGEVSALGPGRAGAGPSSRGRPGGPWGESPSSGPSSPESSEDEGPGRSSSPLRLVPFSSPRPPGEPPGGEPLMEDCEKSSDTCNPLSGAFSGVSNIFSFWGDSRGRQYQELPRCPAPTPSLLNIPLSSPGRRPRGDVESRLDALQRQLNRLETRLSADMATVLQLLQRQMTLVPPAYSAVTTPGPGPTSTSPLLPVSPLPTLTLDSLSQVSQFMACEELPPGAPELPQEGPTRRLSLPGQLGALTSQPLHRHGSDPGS

[7] = Ratio of drug level in NMRI mouse brain to plasma at 1 mg/kg, ip measured after 1 hr by HPLC-MS/MS analysis; type: ADME, organism-based; conditions: read-out: BPR
[8] = Plasma concentration in Wistar rat at 1 mg/kg, ip measured after 35 mins by HPLC-MS/MS analysis; type: ADME, organism-based
[9] = Mutagenicity in Salmonella typhimurium TA1535 in absence of rat liver S9 fraction by AMES test; type: toxicity; conditions: salmonella enterica subsp. enterica serovar typhimurium
[10] = Ratio of drug level in Wistar rat brain to plasma at 3 mg/kg, ip measured after 35 mins by HPLC-MS/MS analysis; type: ADME, organism-based; conditions: read-out: BPR
[11] = Mutagenicity in Escherichia coli WP2 uvrA in presence of rat liver S9 fraction by AMES test; type: toxicity, subcellular
[12] = Plasma concentration in NMRI mouse at 0.3 mg/kg, ip measured after 1 hr by HPLC-MS/MS analysis; type: ADME, organism-based
[13] = Lipophilicity, logP of the compound; type: physicochemical; conditions: octanol/water
[14] = target: T1, GABA-A receptor; alpha-5/beta-3/gamma-2 (Homo sapiens); experiment: Activation of human alpha5beta3gamma2 GABAA receptor expressed in HEK293 cells assessed as enhancement of GABA induced channel current response at 1 to 10 uM measured after 7 to 10 mins at -80 mV holding potential by whole-cell patch clamp assay; type: cell-based; conditions: dose 1-10 µM, time 7-10 min
[15] = Ratio of drug level in Wistar rat brain to plasma at 10 mg/kg, ip measured after 35 mins by HPLC-MS/MS analysis; type: ADME, organism-based; conditions: read-out: BPR
[16] = Plasma concentration in NMRI mouse at 3 mg/kg, ip measured after 1 hr by HPLC-MS/MS analysis; type: ADME, organism-based
[17] = Mutagenicity in Salmonella typhimurium TA1535 in presence of rat liver S9 fraction by AMES test; type: toxicity, subcellular; conditions: salmonella enterica subsp. enterica serovar typhimurium
[18] = Plasma concentration in NMRI mouse at 0.1 mg/kg, ip measured after 1 hr by HPLC-MS/MS analysis; type: ADME, organism-based
[19] = target: Glutamate NMDA receptor (Rattus norvegicus) (UniProt P35439+Q00959+Q00960+Q00961+Q62645+Q8VHN2+Q9R1M7); experiment: Displacement of [3H]TCP from NMDA receptor in Wistar rat cerebral cortex at 10 uM by displacement binding assay; type: tissue-based
[20] = target: Neuronal acetylcholine receptor; alpha3/beta4 (Homo sapiens) (UniProt P30926+P32297); experiment: Positive allosteric modulator activity at alpha3beta4 nAChR (unknown origin) upto 10 uM by automated Q-patch clamp assay; conditions: dose microM <=10
[21] = target: T2, Neuronal acetylcholine receptor subunit alpha-7 (Homo sapiens, UniProt P36544); experiment: Positive allosteric modulation of human alpha7 nAChR expressed in HEK293 cells assessed as inhibition of choline-evoked current desensitization measured after 6 to 10 mins at -80 mV holding potential by automated whole cell patch clamp analysis; type: cell-based; conditions: filed as positive allosteric modulator, time 6-10 min
T2 sequence (P36544 whole entry): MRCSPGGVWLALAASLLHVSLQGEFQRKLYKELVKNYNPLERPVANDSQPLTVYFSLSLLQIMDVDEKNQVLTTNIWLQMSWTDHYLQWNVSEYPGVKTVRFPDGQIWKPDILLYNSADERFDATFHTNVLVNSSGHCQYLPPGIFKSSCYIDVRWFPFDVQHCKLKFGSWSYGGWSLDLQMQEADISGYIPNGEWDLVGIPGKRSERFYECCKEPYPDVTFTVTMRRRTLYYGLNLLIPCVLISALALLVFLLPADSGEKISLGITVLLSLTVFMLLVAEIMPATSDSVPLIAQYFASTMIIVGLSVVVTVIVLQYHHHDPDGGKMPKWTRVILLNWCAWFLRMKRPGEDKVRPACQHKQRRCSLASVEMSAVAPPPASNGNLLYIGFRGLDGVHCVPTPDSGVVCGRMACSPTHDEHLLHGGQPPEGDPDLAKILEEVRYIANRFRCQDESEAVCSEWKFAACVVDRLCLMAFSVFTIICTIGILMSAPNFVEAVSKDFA

[22] = Drug uptake in Wistar rat brain at 1 mg/kg, ip measured after 35 mins by HPLC-MS/MS analysis; type: ADME, organism-based; conditions: read-out: Ct
[23] = target: T2, Neuronal acetylcholine receptor subunit alpha-7; experiment: Positive allosteric modulation of human alpha7 nAChR expressed in HEK293 cells assessed as increase in peak current amplitude measured after 6 to 10 mins at -80 mV holding potential by automated whole cell patch clamp analysis; type: cell-based
[24] = Plasma concentration in NMRI mouse at 10 mg/kg, ip measured after 1 hr by HPLC-MS/MS analysis; type: ADME, organism-based
[25] = Kinetic solubility of compound; type: physicochemical; conditions: read-out: Kinetic_solubility
[26] = Plasma concentration in Wistar rat at 10 mg/kg, ip measured after 35 mins by HPLC-MS/MS analysis; type: ADME, organism-based
[27] = Drug uptake in Wistar rat brain at 3 mg/kg, ip measured after 35 mins by HPLC-MS/MS analysis; type: ADME, organism-based; conditions: read-out: Ct
[28] = Mutagenicity in Salmonella typhimurium TA100 in absence of rat liver S9 fraction by AMES test; type: toxicity; conditions: salmonella enterica subsp. enterica serovar typhimurium
[29] = Ratio of drug level in NMRI mouse brain to plasma at 3 mg/kg, ip measured after 1 hr by HPLC-MS/MS analysis; type: ADME, organism-based; conditions: read-out: BPR
[30] = Plasma concentration in NMRI mouse at 1 mg/kg, ip measured after 1 hr by HPLC-MS/MS analysis; type: ADME, organism-based

concentration at 35 min [1]: 657 nM
inhibition [2]: < 7%
Kp at 1 h [4]: 1.22
inhibition [5]: < 15%
Kp at 1 h [7]: 1.88
concentration at 35 min [8]: 28 nM
Kp at 35 min [10]: 3.8
concentration at 1 h [12]: 4.3 nM
logP [13]: 3.7
Activity [14]: < 7%
Kp at 35 min [15]: 4.01
concentration at 1 h [16]: 37 nM
concentration at 1 h [18]: 2.1 nM
inhibition [19]: < 15%
Activity [20]: inactive
concentration at 35 min [22]: 135 nM
EC50 [23]: 0.71 µM
concentration at 1 h [24]: 142 nM
solubility kinetic [25]: 41.6 µM (≈ 16.2 µg/mL)
concentration at 35 min [26]: 196 nM
concentration at 35 min [27]: 207 nM
Kp at 1 h [29]: 1.68
concentration at 1 h [30]: 21 nM
Compound: Cc1ccc(CN2CCN(C(=O)C(=O)Nc3ccc4c(ccn4C)c3)CC2)cc1
Activity (Mus musculus): Active
Activity [3]: Non-Toxic
IC50 [6]: 7.5 µM
Activity [9]: Non-Toxic
Activity [11]: Non-Toxic
Activity [17]: Non-Toxic
Activity [21]: Active
Activity [28]: Non-Toxic
